# Assay results: US8134015B2, “Compound inhibiting in vivo phosphorous transport and medicine containing the same” (Kyowa Hakko Kirin Co., Ltd., priority 2003, dated 2012)
# Molecular target: T1, rat NaPi-2b (Rattus norvegicus, UniProt Q9JJ09)
# T1 construct: expressed in transfected cells; host or cells: Xenopus oocytes injected with cRNA
# T1 sequence (Q9JJ09 1-695): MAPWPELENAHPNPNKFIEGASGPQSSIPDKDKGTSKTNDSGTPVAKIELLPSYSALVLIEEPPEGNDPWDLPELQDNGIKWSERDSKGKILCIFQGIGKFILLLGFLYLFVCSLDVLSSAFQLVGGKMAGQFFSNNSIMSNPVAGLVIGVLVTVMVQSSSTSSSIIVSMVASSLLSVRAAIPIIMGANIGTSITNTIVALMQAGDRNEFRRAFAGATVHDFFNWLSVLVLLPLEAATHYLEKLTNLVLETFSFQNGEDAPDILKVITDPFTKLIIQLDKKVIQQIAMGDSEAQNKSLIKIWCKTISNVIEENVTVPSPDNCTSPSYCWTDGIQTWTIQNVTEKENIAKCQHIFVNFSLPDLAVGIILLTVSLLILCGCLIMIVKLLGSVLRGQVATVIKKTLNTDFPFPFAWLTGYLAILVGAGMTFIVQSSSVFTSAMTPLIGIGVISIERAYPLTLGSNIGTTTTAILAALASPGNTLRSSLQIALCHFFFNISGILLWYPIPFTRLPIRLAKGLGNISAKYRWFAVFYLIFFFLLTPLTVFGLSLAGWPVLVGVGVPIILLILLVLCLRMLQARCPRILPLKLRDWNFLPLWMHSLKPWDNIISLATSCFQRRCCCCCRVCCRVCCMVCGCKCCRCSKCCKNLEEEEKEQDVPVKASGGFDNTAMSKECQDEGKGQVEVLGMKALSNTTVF
# Test: Sodium-dependent phosphate uptake of Xenopus oocytes which expressed NaPi-2b (32P)
# Format: cell-based
# Details: Xenopus oocytes expressing rat NaPi-2b, 32P radioactive phosphorus; read-out: IC50 (phosphate uptake inhibitory activity)
# Method in brief: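 Inhibition at 300 μM and 100 μM was read off one inhibition curve of 32P phosphate uptake. Uptake was measured in Xenopus oocytes cultured 2 days after injection of cRNA for cloned rat NaPi-2b.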
row,Compound,IC50 [µM]
1,"COc1ccc(C(=O)Nc2ccccc2C(=O)N/N=C/c2cccc([N+](=O)[O-])c2)cc1OC [Compound 103, 3,4-Dimethoxy-N-[2-(3-nitro-benzylidene-hydrazinocarbonyl)-phenyl]-benzamide]",5.73
2,"COc1ccc(C(=O)Nc2ccccc2C(=O)N/N=C/c2ccc(N(C)C)cc2)cc1OC [Compound 104, N-[2-(4-Dimethylamino-benzylidene-hydrazinocarbonyl)-phenyl]-3,4-dimethoxy-benzamide]",11.3
3,"O=C(Nc1ccc(Br)cc1C(=O)N/N=C/c1cccc(F)c1)c1ccc(F)cc1 [Compound 105, N-[4-Bromo-2-(3-fluoro-benzylidene-hydrazinocarbonyl)-phenyl]-4-fluoro-benzamide]",7.29
4,"O=C(Nc1ccc(Br)cc1C(=O)N/N=C/c1ccc(F)cc1)c1ccc(F)cc1 [Compound 106, N-[4-Bromo-2-(4-fluoro-benzylidene-hydrazinocarbonyl)-phenyl]-4-fluoro-benzamide]",5.11
5,"O=C(Nc1ccc(Br)cc1C(=O)N/N=C/c1cccc(Cl)c1)c1ccc(F)cc1 [Compound 107, N-[4-Bromo-2-(3-chloro-benzylidene-hydrazinocarbonyl)-phenyl]-4-fluoro-benzamide]",1.08
6,"O=C(Nc1ccc(Br)cc1C(=O)N/N=C/c1ccc(Cl)cc1)c1ccc(F)cc1 [Compound 108, N-[4-Bromo-2-(4-chloro-benzylidene-hydrazinocarbonyl)-phenyl]-4-fluoro-benzamide]",3.83
7,"O=C(Nc1ccc(Br)cc1C(=O)N/N=C/c1cccc(O)c1)c1ccc(F)cc1 [Compound 109, N-[4-Bromo-2-(3-hydroxy-benzylidene-hydrazinocarbonyl)-phenyl]-4-fluoro-benzamide]",6.18
8,"COc1ccc(C(=O)Nc2ccc(Br)cc2C(=O)N/N=C/c2cccnc2)cc1OC [Compound 110, N-[4-Bromo-2-(pyridin-3-ylmethylene-hydrazinocarbonyl)-phenyl]-3,4-dimethoxy-benzamide]",7.7
9,"COc1ccc(C(=O)Nc2ccc(Cl)cc2C(=O)N/N=C/c2cccnc2)cc1OC [Compound 111, N-[4-Chloro-2-(pyridin-3-ylmethylene-hydrazinocarbonyl)-phenyl]-3,4-dimethoxy-benzamide]",9.12
10,"COc1ccc(C(=O)Nc2ccccc2C(=O)N/N=C/c2cccnc2)cc1 [Compound 112, 4-Methoxy-N-[2-(pyridin-3-ylmethylene-hydrazinocarbonyl)-phenyl]-benzamide]",42
11,"O=C(Nc1ccccc1C(=O)N/N=C/c1cccnc1)c1ccc(F)cc1 [Compound 113, 4-Fluoro-N-[2-(pyridin-3-ylmethylene-hydrazinocarbonyl)-phenyl]-benzamide]",17.9
12,"COc1cc(OC)cc(C(=O)Nc2ccc(Br)cc2C(=O)N/N=C/c2cccc(F)c2)c1 [Compound 114, N-[4-Bromo-2-(3-fluoro-benzylidene-hydrazinocarbonyl)-phenyl]-3,5-dimethoxy-benzamide]",2.55
13,"COc1cc(OC)cc(C(=O)Nc2ccc(Br)cc2C(=O)N/N=C/c2ccc(F)cc2)c1 [Compound 115, N-[4-Bromo-2-(4-fluoro-benzylidene-hydrazinocarbonyl)-phenyl]-3,5-dimethoxy-benzamide]",5.48
14,"COc1cc(OC)cc(C(=O)Nc2ccc(Br)cc2C(=O)N/N=C/c2cccc(Cl)c2)c1 [Compound 116, N-[4-Bromo-2-(3-chloro-benzylidene-hydrazinocarbonyl)-phenyl]-3,5-dimethoxy-benzamide]",7.01
15,"COc1cc(OC)cc(C(=O)Nc2ccc(Br)cc2C(=O)N/N=C/c2ccc(Cl)cc2)c1 [Compound 117, N-[4-Bromo-2-(4-chloro-benzylidene-hydrazinocarbonyl)-phenyl]-3,5-dimethoxy-benzamide]",0.58
16,"COc1cc(OC)cc(C(=O)Nc2ccc(Br)cc2C(=O)NN=Cc2cccc(C)c2)c1 [Compound 118, N-[4-Bromo-2-(3-methyl-benzylidene-hydrazinocarbonyl)-phenyl]-3,5-dimethoxy-benzamide]",6.07
17,"COc1cc(OC)cc(C(=O)Nc2ccc(Br)cc2C(=O)N/N=C/c2ccc(C)cc2)c1 [Compound 119, N-[4-Bromo-2-(4-methyl-benzylidene-hydrazinocarbonyl)-phenyl]-3,5-dimethoxy-benzamide]",0.74
18,O=C(Nc1ccccc1C(=O)N/N=C/c1cccc(F)c1)c1cccc(OC(F)(F)F)c1 [Compound 120],2.55
19,O=C(Nc1ccccc1C(=O)N/N=C/c1ccc(F)cc1)c1cccc(OC(F)(F)F)c1 [Compound 121],4.06

row,Compound,IC50 [µM]
1,O=C(Nc1ccccc1C(=O)N/N=C/c1cccc(Cl)c1)c1cccc(OC(F)(F)F)c1 [Compound 122],< 3
2,O=C(Nc1ccccc1C(=O)N/N=C/c1ccc(Cl)cc1)c1cccc(OC(F)(F)F)c1 [Compound 123],3.77
3,Cc1ccc(/C=N/NC(=O)c2ccccc2NC(=O)c2cccc(OC(F)(F)F)c2)cc1 [Compound 124],3.15
4,"COc1ccc(C(=O)Nc2ccc(OCCCN(C)C)cc2C(=O)N/N=C/c2ccc(F)cc2)cc1OC [Compound 125, N-[4-(3-Dimethylamino-propoxy)-2-(4-fluoro-benzylidene-hydrazinocarbonyl)-phenyl]-3,4-dimethoxy-benzamide]",136
5,"COc1ccc(/C=N/NC(=O)c2cc(Cl)ccc2NC(=O)c2ccc(OC)c(OC)c2)cc1OC [Compound 126, N-[4-Chloro-2-(3,4-dimethoxy-benzylidene-hydrazinocarbonyl)-phenyl]-3,4-dimethoxy-benzamide]",6.43
6,"COc1ccc(/C=N/NC(=O)c2cc(Br)ccc2NC(=O)c2ccc(OC)c(OC)c2)cc1OC [Compound 127, N-[4-Bromo-2-(3,4-dimethoxy-benzylidene-hydrazinocarbonyl)-phenyl]-3,4-dimethoxy-benzamide]",11.6
7,"COc1cc(OC)cc(C(=O)Nc2ccc(Br)cc2C(=O)N/N=C/c2ccc(OC)c(OC)c2)c1 [Compound 128, N-[4-Bromo-2-(3,4-dimethoxy-benzylidene-hydrazinocarbonyl)-phenyl]-3,5-dimethoxy-benzamide]",11.6
8,"O=C(Nc1ccccc1C(=O)N/N=C/c1cccc(F)c1)c1cccnc1 [Compound 129, N-[2-(3-Fluoro-benzylidene-hydrazinocarbonyl)-phenyl]-nicotinamide]",13.7
9,"Cc1ccc(/C=N/NC(=O)c2ccccc2NC(=O)c2cccnc2)cc1 [Compound 132, N-[2-(4-Methyl-benzylidene-hydrazinocarbonyl)-phenyl]-nicotinamide]",0.75
10,"Cc1ccc(/C=N/NC(=O)c2ccccc2NC(=O)c2cccnc2)cc1C [Compound 133, N-[2-(3,4-Dimethyl-benzylidene-hydrazinocarbonyl)-phenyl]-nicotinamide]",0.88
11,"O=C(Nc1ccccc1C(=O)N/N=C/c1cccc(F)c1)c1ccncc1 [Compound 134, N-[2-(3-Fluoro-benzylidene-hydrazinocarbonyl)-phenyl]-isonicotinamide]",7.82
12,"O=C(Nc1ccccc1C(=O)N/N=C/c1ccc(F)cc1)c1ccncc1 [Compound 135, N-[2-(4-Fluoro-benzylidene-hydrazinocarbonyl)-phenyl]-isonicotinamide]",3.74
13,"Cc1cccc(/C=N/NC(=O)c2ccccc2NC(=O)c2ccncc2)c1 [Compound 136, N-[2-(3-Methyl-benzylidene-hydrazinocarbonyl)-phenyl]-isonicotinamide]",4.52
14,"Cc1ccc(/C=N/NC(=O)c2ccccc2NC(=O)c2ccncc2)cc1 [Compound 137, N-[2-(4-Methyl-benzylidene-hydrazinocarbonyl)-phenyl]-isonicotinamide]",3
15,"Cc1ccc(/C=N/NC(=O)c2ccccc2NC(=O)c2ccncc2)cc1C [Compound 138, N-[2-(3,4-Dimethyl-benzylidene-hydrazinocarbonyl)-phenyl]-isonicotinamide]",4.47
16,"COc1ccc(C(=O)Nc2ccc(OCCN(C)C)cc2C(=O)N/N=C/c2ccc(F)cc2)cc1OC [Compound 139, N-[4-(2-Dimethylamino-ethoxy-)-2-(4-fluoro-benzylidene-hydrazinocarbonyl)-phenyl]-3,4-dimethoxy-benzamide]",55.5
17,"CCN(CC)CCOc1ccc(NC(=O)c2ccc(OC)c(OC)c2)c(C(=O)N/N=C/c2ccc(F)cc2)c1 [Compound 140, N-[4-(2-Diethylamino-ethoxy)-2-(4-fluoro-benzylidene-hydrazinocarbonyl)-phenyl]-3,4-dimethoxy-benzamide]",74.2
18,"COc1ccc(NC(=O)c2ccc(OC)c(OC)c2)c(C(=O)N/N=C/c2cccc(F)c2)c1 [Compound 141, N-[2-(3-Fluoro-benzylidene-hydrazinocarbonyl)-4-methoxy-phenyl]-3,4-dimethoxy-benzamide]",5.78

# Same assay, conditions: phosphate uptake, oocytes expressing rat NaPi-2b; 300 μM, determined from inhibition curve
row,Compound,inhibition at 300 µM [%]
1,"Cc1cccc(/C=N/NC(=O)c2ccccc2NC(=O)c2cccnc2)c1 [Compound 131, N-[2-(3-Methyl-benzylidene-hydrazinocarbonyl)-phenyl]-nicotinamide]",32.4
